Values of other authors as cited in US20110236508A1, “L-ARGININE-BASED FORMULATION FOR ORAL ABSORPTION” (priority 2008, published 2011).

Experiments:
[1] = system: anginal patients; details: 6 g/day
[2] = system: coronary artery disease; details: 9 g/day orally for 6 months
[3] = system: brachial artery
[4] = 24 hypercholesterolemic patients, 14 g/day for 12 weeks
[5] = system: mice deficient in Apo-E; details: 6% L-arginine drinking solution
[6] = system: coronary endothelial dysfunction; details: oral 3 g TID, after 6 months
[7] = system: peripheral arterial disease; details: 8 g, bid, 14 days

Structure (SMILES): N=C(N)NCCC[C@H](N)C(=O)O [L-arginine]
- exercise tolerance [1]: improved
- time to 1 mm ST-segment depression during exercise-stress testing [1]: increased
- decrease in anginal episodes [2]: 70%
- improvement of acetylcholine-induced coronary vascular relaxation [2]: 149%
- flow-mediated dilation (FMD) of the brachial artery ([3]; 8 g p.o. two times daily for 14 days, 12 healthy old subjects, p<0.0001): 5.7+/−1.2%
- plasma levels of L-arginine ([3]; after 8 g p.o. two times daily for 14 days, versus 57.4+/−5.0): 114.9 ± 11.6 µM
- ADMA plasma concentrations ([3]; during treatment, 8 g p.o. two times daily for 14 days): remained unchanged
- adverse effects [4]: no reports of any adverse effects
- increase in treadmill exercise performance [5]: 61%
- patients' symptoms scores ([6]; compared with placebo): improvement
- plasma endothelin concentrations ([6]; compared with placebo): decrease
- coronary blood flow in response to acetylcholine ([6]; P<0.05 versus placebo): 149±20%
- improvement in walking distance [7]: 150%
